Experimental data: patent publication US9708270B2, “Substituted spiropiperidinyl compounds useful as GPR120 agonists” (Merck Sharp & Dohme Corp., priority 2012, dated 2017)

What follows are compounds tested against T1, human GPR120 (Homo sapiens (Human), UniProt Q5NUL3) (assay: IP1 assay (GPR120 assay adapted from Bergsdorf et al.)). Conditions: not given.
Format: cell-based
Excerpt: The EC50 values for the exemplified compounds are provided in the following examples and in the following tables. • IP1 Assay • IP1 assay results were obtained adapting the GPR120 assay described in C. Bergsdorf, et al., Assay Drug Dev. Technol., 2008, 6(1), 39-53. General Schemes

T1 sequence (Q5NUL3 whole entry): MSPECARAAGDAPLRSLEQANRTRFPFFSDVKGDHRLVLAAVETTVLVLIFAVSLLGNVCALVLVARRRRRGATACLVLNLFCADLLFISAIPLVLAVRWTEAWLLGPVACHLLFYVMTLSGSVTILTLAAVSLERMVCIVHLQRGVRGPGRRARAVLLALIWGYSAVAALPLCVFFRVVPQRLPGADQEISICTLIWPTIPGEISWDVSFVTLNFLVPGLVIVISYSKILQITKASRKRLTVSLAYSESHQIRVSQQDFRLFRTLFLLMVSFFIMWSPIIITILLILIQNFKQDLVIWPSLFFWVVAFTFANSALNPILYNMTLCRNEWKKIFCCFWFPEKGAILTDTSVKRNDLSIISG

EC50	SMILES
0.202 µM	COc1cc(F)c(N2CCC3(CCC(CCC(=O)O)C3)CC2)cc1OC1CCC1 (stereo not drawn) [Example 107]
0.22 µM	N#Cc1ccc(OC(F)(F)F)cc1N1CCC2(CCC(CCC(=O)O)C2)CC1 (stereo not drawn) [Example 106]

SMILES	EC50
O=C(O)CCC1CCC2(CCN(c3cc(OC4CCC4)ccc3Cl)CC2)C1 (stereo not drawn) [Example 105, 3-(8-(2-chloro-5-cyclobutoxyphenyl)-8-azaspiro[4.5]decan-2-yl)propanoic acid]	0.0448 µM

The compounds below were run against T1, human GPR120 (assay: FLIPR assay: intracellular calcium in CHO cells expressing human GPR120). Conditions: FLIPR calcium assay, CHO cells expressing human GPR120, agonist action.
Format: cell-based
Method: All compounds were tested under the FLIPR assay unless otherwise indicated.
Primers were synthesized in the domains on the opposite sides of the base sequences of the ORFs of the known GPCR and GPR120 in GenBank Accession NOs. […] The base sequences of the primers used are described below. The restriction enzymes, BamHI and EcoRI, recognition sites were introduced for subcloning, respectively.
As samples for PCR, human small intestine Marathon-ready cDNA (CLONTECH, current corporate name: TaKaRa) and cDMA obtained by reverse transcription of mouse BAT-derived RNA were used for human and mouse GPR120 receptor genes, respectively.
Using KOD Plus (TOYOBO) for PCR, 30 cycles of 94° C. for 2 minutes, 94° C. for 15 seconds, 55° C. for 30 seconds and 68° C. for 1 minute were carried out to effect reaction, followed by addition of 0.5 units of ExTaq (TaKaRa) and incubation at 72° C. for 10 minutes to carry out A-addition reaction to terminals. For mouse PCR, 35 cycles were carried out on the condition of a final DMSO concentration of 2%.
Cloning of amplified PCR products was carried out using pCR2.1-TOPO TA cloning kit (Invitrogen). For verification of base sequences, electrophoresis was carried out using BigDye Terminator Cycle Sequencing Ready Reaction Kit Ver.
The GPR120 receptor genes cloned into pCR2.1-TOPO vectors, into which the restriction enzymes, BamHI and EcoRI, recognition sites were introduced, were excised from the vectors by the enzymes and subcloned into the BamHI and EcoRI recognition sites of eukaryotic expression vector EF1/V5-His B (Invitrogen).
Test 2: Production of Expression Cells
Using Lipofectamine 2000 (Invitrogen), cDNA of GPR120 receptor was transfected into CHO/NFAT-BLA cells, and drug-resistant cells were isolated to obtain GPR120 stable expression strains. The GPR120-expressed CHO cells were cultured in DMEM/F12 medium containing 10% fetal bovine serum, 100 units/ml penicillin, 0.1 mg/ml streptomycin sulfate, 250 μg/ml Zeocin, 500 μg/mL Geneticin and 15 mM HEPES.
Test 3: Measurement of Intracellular Calcium Concentration
To the cells was added the test compound diluted with HBSS solution containing 20 mM HEPES and 2.5 mM probenecid. Variations in the intracellular calcium concentration were measured by Fluorescence Imaging Plate Reader (FLIPR; Molecular Devices) to examine the agonist action, and EC50 values were calculated. […]

SMILES	EC50
O=C(O)CCC1CCC2(CC1)CCN(c1cc(OC(F)(F)F)ccc1Cl)CC2 [Example 85]	1.79 µM
CC(C)c1cc(C#N)cc(N2CCC3(CCC(CC(=O)O)CC3)CC2)c1 [Example 24]	3.46 µM
O=C(O)CC1COC2(CCN(c3cc(OC(F)(F)F)ccc3F)CC2)C1 (racemic) [Example 94, 2-(8-(2-fluoro-5-(trifluoromethoxy)phenyl)-1-oxa-8-azaspiro[4.5]decan-3-yl)acetic acid]	1.48 µM
CC1CC(CC(=O)O)CCC12CCN(c1cc(OC(F)(F)F)ccc1Cl)CC2 (single isomer, unassigned) [Example 89a, 2-(3-(2-Chloro-5-(trifluoromethoxy)phenyl)-7-methyl-3-azaspiro[5.5]undecan-9-yl)acetic acid]	2.76 µM
COc1cc(N2CCC3(CCC(CC(=O)O)CC3)CC2)c(F)cn1 [Example 74]	3.42 µM
O=C(O)CC1CCC2(CC1)CCN(c1cc(OC(F)(F)F)ccc1F)CC2 [Example 7]	0.41 µM
O=C(O)CC1CCC2(CC1)CCN(c1cc(OC3CC3)ccc1F)CC2 [Example 62]	2.15 µM
O=C(O)CC1CCC2(CC1)CCN(c1cc(F)cc(Cl)c1)CC2 [Example 29]	1.79 µM
O=C(O)CC1CCC2(CCN(c3cc(OC(F)(F)F)ccc3Cl)CC2)OC1 (single isomer, unassigned) [Example 91B, (S)-2-(9-(2-chloro-5-(trifluoromethoxy)phenyl)-1-oxa-9-azaspiro[5.5]undecan-3-yl)acetic acid or (R)-2-(9-(2-chloro-5-(trifluoromethoxy)phenyl)-1-oxa-9-azaspiro[5.5]undecan-3-yl)acetic acid]	1.02 µM
Cc1cc(F)cc(N2CCC3(CCC(CC(=O)O)CC3)CC2)c1 [Example 28]	3.04 µM
COc1ccc(C(F)(F)F)cc1N1CCC2(CCC(CC(=O)O)CC2)CC1 [Example 15]	2.35 µM
O=C(O)CC1CCC2(CC1)CCN(c1cc(OC(F)F)ccc1Cl)CC2 [Example 61]	1.96 µM
N#Cc1cc(SC(F)(F)F)cc(N2CCC3(CCC(CC(=O)O)CC3)CC2)c1 [Example 25]	1.15 µM
CC(C)Oc1cc(Cl)cc(N2CCC3(CCC(CC(=O)O)CC3)CC2)c1 [Example 52]	0.641 µM
CC1CC(CC(=O)O)CCC12CCN(c1cc(OC(F)(F)F)ccc1Cl)CC2 (stereo not drawn) [Example 89, 2-(3-(2-Chloro-5-(trifluoromethoxy)phenyl)-7-methyl-3-azaspiro[5.5]undecan-9-yl)acetic acid]	2.49 µM
O=C(O)CC1CCC2(CC1)CCN(c1ccc(-c3ccccc3)cc1)CC2 [Example 77]	4.94 µM
O=C(O)CC1CCC2(CCN(c3cc(OC(F)(F)F)ccc3Cl)CC2)OC1 (single isomer, unassigned) [Example 91A, (S)-2-(9-(2-chloro-5-(trifluoromethoxy)phenyl)-1-oxa-9-azaspiro[5.5]undecan-3-yl)acetic acid or (R)-2-(9-(2-chloro-5-(trifluoromethoxy)phenyl)-1-oxa-9-azaspiro[5.5]undecan-3-yl)acetic acid]	0.636 µM

Further lines, results first:

EC50	SMILES
8.3 µM	CSc1nc(N2CCC3(CCC(CC(=O)O)CC3)CC2)cc(C(F)(F)F)n1 [Example 26]
0.652 µM	O=C(O)CC1CCC2(CC1)CCN(c1cc(C(F)(F)F)ccc1F)CC2 [Example 16]
1.55 µM	CC(C)Oc1cc(F)cc(N2CCC3(CCC(CC(=O)O)CC3)CC2)c1 [Example 60]
1.69 µM	CSc1ccc(OC(F)(F)F)cc1N1CCC2(CCC(CC(=O)O)CC2)CC1 [Example 41]
0.667 µM	CSc1cc(N2CCC3(CCC(CC(=O)O)CC3)CC2)cc(C(F)(F)F)c1 [Example 53]
2.5 µM	Cc1ccc(C#N)cc1N1CCC2(CCC(CC(=O)O)CC2)CC1 [Example 65]
2.18 µM	Cc1ccc(Cl)c(N2CCC3(CCC(CC(=O)O)CC3)CC2)c1 [Example 9]
0.832 µM	O=C(O)CC1CCC2(CC1)CCN(c1cc(Cl)cc(C(F)(F)F)c1)CC2 [Example 36]
0.681 µM	O=C(O)CC1CCC2(CC1)CCN(c1cc(OC(F)(F)F)ccc1O)CC2 [Example 54]
1.66 µM	CCC(=O)c1ccc(F)c(N2CCC3(CCC(CC(=O)O)CC3)CC2)c1 [Example 20]
1.53 µM	O=C(O)C[C@@H]1CCC2(CCN(c3cc(OC4CCC4)ccc3Cl)CC2)OC1 [Example 98]
2.42 µM	COc1cc(F)c(N2CCC3(CCC(CC(=O)O)CC3)CC2)cc1F [Example 6]
2.02 µM	O=C(O)CCCC1CCC2(CC1)CCN(c1cc(OC(F)(F)F)ccc1Cl)CC2 [Example 86]
1.29 µM	CCc1cc(C)cc(N2CCC3(CCC(CC(=O)O)CC3)CC2)c1 [Example 46]
3.4 µM	CC(C(=O)O)C1CCC2(CC1)CCN(c1cc(OC(F)(F)F)ccc1Cl)CC2 (stereo not drawn) [Example 3, 2-(3-(2-chloro-5-(trifluoromethoxy)phenyl)-3-azaspiro[5.5]undecan-9-yl)propanoic acid]

Same assay, conditions: at 8300 nM; 100% activation defined by reference compound of U.S. Pat. No. 8,367,708

Human GPR120 % activation	SMILES
62%	CSc1nc(N2CCC3(CCC(CC(=O)O)CC3)CC2)cc(C(F)(F)F)n1 [Example 26]
